Data on two molecules can be found in publication PMC9851200, “Multiparameter phenotypic screening for endogenous TFEB and TFE3 translocation identifies novel chemical series modulating lysosome function” (Autophagy, 2022).

What all share (type): binding
Assay [1] concerns the target kinases (KINOMEscan panel) (Homo sapiens, UniProt P00519, T315I). Conditions: NEW KINOMEscan; for KINOMEscan ABL1(T315I)-nonphosphorylated: kinase ABL1(T315I)-nonphosphorylated; for KINOMEscan ABL1(T315I)-phosphorylated: kinase ABL1(T315I)-phosphorylated.
Assay [2] has as its target kinases (KINOMEscan panel) (Homo sapiens, UniProt Q15746). Conditions: kinase MYLK; NEW KINOMEscan.
Assay [3] addresses T1, kinases (KINOMEscan panel) (Homo sapiens, UniProt Q9Y2U5).
T1 sequence (Q9Y2U5 1-619): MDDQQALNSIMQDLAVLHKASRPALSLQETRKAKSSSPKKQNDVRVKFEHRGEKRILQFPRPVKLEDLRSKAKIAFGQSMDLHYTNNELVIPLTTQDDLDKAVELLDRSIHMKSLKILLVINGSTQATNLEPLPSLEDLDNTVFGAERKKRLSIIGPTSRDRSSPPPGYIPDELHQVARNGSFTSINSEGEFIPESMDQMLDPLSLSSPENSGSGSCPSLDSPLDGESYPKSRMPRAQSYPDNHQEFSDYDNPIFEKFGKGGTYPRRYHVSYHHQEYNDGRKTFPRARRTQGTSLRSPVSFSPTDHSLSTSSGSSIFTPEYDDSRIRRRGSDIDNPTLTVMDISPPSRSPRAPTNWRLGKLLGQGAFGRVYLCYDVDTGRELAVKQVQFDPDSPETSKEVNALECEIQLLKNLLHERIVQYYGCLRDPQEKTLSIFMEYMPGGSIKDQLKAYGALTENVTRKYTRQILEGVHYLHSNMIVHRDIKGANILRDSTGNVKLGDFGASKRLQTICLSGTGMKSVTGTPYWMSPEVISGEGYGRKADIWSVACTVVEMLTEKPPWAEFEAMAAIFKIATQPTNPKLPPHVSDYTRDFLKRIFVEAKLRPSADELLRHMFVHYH
Conditions: MAP3K2; NEW KINOMEscan.

Assay [4] has as its target kinases (KINOMEscan panel) (Homo sapiens, UniProt Q16513). Conditions: kinase PKN2; NEW KINOMEscan.
Assay [5] has as its target T2, kinases (KINOMEscan panel) (Homo sapiens, UniProt Q96PN8).
T2 sequence (Q96PN8 1-268): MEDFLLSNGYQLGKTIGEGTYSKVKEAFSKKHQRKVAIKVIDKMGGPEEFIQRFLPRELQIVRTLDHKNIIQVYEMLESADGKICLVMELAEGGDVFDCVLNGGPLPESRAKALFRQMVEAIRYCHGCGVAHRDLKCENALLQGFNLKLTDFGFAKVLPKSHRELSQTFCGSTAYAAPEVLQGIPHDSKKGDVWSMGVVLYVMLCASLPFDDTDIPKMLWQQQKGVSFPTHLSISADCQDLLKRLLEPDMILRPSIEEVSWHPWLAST
Conditions: kinase TSSK3; NEW KINOMEscan.

Assay [6] concerns the target kinases (KINOMEscan panel) (Homo sapiens, UniProt P29376). Conditions: LTK; NEW KINOMEscan.
Assay [7] has as its target kinases (KINOMEscan panel) (Homo sapiens, UniProt Q52WX2). Conditions: SBK1; NEW KINOMEscan.
Assay [8] deals with T3, kinases (KINOMEscan panel) (Homo sapiens, UniProt P33981).
T3 sequence (P33981 1-857): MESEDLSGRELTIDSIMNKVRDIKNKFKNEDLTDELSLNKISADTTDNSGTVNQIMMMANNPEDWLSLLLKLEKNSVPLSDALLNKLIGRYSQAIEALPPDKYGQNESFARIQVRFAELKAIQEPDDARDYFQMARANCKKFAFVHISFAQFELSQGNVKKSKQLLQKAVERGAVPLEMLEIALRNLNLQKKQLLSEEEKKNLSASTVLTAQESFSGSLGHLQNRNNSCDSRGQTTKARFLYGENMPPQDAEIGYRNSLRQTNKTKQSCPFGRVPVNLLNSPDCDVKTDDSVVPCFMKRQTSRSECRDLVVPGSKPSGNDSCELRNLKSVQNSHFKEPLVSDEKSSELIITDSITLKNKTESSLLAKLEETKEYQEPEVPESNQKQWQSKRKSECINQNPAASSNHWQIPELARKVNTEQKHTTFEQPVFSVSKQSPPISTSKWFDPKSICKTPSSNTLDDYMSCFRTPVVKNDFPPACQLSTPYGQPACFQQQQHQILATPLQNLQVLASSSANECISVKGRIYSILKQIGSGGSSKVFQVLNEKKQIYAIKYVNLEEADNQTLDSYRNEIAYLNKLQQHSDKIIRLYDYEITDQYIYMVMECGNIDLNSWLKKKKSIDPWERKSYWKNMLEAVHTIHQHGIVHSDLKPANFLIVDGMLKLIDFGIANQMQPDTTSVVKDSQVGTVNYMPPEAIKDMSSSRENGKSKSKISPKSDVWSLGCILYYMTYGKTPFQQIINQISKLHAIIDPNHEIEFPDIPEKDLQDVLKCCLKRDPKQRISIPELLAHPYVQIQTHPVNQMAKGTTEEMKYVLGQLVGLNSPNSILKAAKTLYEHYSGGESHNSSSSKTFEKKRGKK
Conditions: NEW KINOMEscan.

Assay [9] addresses kinases (KINOMEscan panel) (Homo sapiens, UniProt Q9P0L2). Conditions: NEW KINOMEscan.
In assay [10] the target is kinases (KINOMEscan panel) (Homo sapiens, UniProt P49759). Conditions: kinase CLK1; NEW KINOMEscan.
Chain of kinases (KINOMEscan panel) (Homo sapiens, UniProt P49759) (P49759 whole entry): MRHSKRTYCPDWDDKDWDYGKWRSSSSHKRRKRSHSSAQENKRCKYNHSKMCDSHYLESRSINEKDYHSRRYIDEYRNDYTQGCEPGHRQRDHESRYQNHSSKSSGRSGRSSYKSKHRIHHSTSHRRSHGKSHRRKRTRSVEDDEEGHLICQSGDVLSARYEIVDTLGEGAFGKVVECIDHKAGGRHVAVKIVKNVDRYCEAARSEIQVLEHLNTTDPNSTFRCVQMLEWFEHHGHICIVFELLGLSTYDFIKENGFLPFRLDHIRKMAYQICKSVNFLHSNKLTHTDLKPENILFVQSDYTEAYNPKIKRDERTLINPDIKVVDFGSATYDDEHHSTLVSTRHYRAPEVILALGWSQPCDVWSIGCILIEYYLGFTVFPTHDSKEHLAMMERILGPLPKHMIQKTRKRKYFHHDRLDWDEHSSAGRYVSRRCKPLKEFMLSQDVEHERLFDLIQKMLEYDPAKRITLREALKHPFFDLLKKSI
Assay [11] has as its target kinases (KINOMEscan panel) (Homo sapiens, UniProt O43293). Conditions: DAPK3; NEW KINOMEscan.

SMILES strings stand for the structures.

Chain of kinases (KINOMEscan panel) (Homo sapiens, UniProt P29376) (P29376 17-864): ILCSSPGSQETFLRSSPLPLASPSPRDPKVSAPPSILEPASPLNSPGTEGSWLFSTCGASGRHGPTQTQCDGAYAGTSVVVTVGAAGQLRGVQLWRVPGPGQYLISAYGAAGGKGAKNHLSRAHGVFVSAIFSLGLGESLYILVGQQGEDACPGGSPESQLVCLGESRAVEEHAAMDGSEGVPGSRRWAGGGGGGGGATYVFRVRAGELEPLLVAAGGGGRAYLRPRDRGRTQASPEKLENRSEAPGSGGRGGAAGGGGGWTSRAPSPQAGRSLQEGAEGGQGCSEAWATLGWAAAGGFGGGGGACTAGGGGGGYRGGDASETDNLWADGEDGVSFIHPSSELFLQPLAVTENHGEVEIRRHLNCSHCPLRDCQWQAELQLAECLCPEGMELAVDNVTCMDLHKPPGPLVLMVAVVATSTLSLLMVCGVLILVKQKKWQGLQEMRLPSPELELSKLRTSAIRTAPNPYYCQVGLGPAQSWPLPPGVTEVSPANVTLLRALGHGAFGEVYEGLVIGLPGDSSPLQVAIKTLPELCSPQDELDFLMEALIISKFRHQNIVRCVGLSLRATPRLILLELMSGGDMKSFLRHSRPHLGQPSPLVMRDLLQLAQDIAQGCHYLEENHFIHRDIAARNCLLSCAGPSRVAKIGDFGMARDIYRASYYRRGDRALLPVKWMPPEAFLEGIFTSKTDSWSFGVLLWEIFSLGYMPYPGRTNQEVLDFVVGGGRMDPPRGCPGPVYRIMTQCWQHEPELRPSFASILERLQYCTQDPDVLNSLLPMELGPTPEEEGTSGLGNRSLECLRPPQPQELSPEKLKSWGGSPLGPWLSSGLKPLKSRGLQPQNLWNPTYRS
Chain of kinases (KINOMEscan panel) (Homo sapiens, UniProt Q16513) (Q16513 whole entry): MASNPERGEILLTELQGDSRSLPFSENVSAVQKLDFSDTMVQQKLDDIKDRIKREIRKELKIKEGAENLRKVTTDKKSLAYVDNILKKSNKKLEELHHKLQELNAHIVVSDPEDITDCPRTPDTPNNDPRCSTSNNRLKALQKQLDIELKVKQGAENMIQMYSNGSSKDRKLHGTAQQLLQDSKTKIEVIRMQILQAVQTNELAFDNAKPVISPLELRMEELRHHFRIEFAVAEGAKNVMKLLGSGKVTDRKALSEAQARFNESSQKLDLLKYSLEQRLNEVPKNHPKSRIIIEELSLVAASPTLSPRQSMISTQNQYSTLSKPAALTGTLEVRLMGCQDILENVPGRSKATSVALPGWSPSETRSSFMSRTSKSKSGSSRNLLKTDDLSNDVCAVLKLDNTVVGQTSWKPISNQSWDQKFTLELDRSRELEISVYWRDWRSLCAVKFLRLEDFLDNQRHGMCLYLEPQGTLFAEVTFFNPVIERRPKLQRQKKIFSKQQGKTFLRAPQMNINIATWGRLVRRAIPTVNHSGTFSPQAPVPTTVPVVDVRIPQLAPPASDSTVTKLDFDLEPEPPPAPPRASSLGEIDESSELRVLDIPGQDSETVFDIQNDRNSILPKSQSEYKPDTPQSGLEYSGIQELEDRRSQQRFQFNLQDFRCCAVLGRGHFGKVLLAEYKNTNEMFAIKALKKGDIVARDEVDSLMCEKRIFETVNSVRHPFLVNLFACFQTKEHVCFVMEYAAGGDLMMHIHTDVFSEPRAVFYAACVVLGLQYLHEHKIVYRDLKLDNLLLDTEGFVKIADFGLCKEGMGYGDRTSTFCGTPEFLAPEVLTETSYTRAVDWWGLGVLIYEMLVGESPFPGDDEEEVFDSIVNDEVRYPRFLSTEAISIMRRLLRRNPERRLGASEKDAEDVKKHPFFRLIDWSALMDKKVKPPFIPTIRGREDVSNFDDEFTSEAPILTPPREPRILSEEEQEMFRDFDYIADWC
Chain of kinases (KINOMEscan panel) (Homo sapiens, UniProt Q15746) (Q15746 whole entry): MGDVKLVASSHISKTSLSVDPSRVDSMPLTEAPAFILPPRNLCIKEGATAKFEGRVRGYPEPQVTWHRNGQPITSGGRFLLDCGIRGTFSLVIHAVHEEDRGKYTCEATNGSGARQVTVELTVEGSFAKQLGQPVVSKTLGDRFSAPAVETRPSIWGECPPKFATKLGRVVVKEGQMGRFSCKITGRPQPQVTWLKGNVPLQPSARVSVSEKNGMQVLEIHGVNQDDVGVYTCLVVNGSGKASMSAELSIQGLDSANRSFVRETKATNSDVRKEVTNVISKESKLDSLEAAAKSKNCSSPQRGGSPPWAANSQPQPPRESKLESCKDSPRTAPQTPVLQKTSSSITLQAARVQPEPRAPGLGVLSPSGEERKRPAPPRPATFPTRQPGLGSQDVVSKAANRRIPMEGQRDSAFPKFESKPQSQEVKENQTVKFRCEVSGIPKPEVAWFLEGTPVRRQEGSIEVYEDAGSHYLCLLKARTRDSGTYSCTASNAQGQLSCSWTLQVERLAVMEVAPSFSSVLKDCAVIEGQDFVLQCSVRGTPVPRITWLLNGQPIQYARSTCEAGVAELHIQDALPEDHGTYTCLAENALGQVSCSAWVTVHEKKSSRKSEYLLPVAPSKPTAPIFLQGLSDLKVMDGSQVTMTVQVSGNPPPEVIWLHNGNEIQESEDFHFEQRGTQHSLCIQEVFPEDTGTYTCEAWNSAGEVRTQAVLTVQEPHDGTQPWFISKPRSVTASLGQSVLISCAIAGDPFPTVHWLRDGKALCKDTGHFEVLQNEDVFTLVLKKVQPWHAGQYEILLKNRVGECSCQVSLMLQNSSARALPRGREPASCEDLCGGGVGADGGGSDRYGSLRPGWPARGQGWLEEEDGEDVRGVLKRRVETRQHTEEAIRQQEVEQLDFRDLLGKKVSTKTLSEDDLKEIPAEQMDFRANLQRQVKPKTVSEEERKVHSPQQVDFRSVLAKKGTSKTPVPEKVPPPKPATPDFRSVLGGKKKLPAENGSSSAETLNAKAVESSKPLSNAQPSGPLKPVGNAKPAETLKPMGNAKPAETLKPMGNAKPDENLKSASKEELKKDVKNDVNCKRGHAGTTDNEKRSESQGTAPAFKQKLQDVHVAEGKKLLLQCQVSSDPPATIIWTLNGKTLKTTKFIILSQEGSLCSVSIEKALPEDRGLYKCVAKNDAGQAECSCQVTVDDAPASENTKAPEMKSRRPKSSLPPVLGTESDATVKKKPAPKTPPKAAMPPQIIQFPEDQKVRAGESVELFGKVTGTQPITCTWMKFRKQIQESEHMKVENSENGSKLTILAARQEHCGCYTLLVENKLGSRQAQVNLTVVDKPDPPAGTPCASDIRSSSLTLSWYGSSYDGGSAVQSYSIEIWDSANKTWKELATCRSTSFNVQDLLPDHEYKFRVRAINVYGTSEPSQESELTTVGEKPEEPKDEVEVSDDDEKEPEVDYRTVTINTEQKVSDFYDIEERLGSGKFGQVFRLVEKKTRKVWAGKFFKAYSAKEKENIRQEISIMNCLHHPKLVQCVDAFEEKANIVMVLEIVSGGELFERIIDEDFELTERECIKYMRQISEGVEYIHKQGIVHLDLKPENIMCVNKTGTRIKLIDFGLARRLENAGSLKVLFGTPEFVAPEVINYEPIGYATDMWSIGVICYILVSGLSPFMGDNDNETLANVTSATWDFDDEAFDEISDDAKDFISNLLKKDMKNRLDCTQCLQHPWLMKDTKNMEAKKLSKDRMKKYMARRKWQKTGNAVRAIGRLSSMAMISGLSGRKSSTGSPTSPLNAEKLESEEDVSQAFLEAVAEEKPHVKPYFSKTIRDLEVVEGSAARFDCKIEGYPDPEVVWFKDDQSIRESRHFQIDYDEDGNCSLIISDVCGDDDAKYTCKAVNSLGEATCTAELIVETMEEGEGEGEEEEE
Chain of kinases (KINOMEscan panel) (Homo sapiens, UniProt Q9P0L2) (Q9P0L2 whole entry): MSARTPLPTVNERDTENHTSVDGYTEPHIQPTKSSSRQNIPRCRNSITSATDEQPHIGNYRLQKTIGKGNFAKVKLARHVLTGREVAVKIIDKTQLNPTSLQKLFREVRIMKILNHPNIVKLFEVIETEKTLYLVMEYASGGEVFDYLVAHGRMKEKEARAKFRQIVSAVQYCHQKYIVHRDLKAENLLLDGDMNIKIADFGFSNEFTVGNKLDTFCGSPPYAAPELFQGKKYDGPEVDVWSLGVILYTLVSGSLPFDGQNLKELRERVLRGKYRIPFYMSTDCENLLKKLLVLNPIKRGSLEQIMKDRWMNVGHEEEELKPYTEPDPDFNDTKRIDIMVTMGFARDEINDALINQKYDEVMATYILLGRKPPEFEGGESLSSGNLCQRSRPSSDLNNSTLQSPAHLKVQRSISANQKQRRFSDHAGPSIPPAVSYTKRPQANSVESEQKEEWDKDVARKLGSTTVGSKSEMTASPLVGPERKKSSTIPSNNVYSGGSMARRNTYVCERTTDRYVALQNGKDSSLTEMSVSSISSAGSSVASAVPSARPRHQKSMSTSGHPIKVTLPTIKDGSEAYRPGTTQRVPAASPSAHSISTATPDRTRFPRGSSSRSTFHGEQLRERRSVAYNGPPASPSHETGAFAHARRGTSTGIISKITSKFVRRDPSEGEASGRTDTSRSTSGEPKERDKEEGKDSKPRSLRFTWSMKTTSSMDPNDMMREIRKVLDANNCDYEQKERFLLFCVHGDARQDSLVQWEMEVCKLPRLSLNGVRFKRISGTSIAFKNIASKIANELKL

`Cc1cccc(-c2nc(Nc3ccc4nn(C)cc4c3)c3ccccc3n2)n1` [NK167]: in assay [1], the “KINOMEscan ABL1(T315I)-nonphosphorylated” value came out at 0 and the “KINOMEscan ABL1(T315I)-phosphorylated” value amounted to 4. Also, the “KINOMEscan MYLK” value in assay [2] stood at 19. In addition, in assay [3], the “KINOMEscan MAP3K2” value is listed as 0. Moreover, the “KINOMEscan PKN2” value in assay [4] came to 0. Moreover, the “KINOMEscan TSSK3” value in [5] was 0. Moreover, in assay [6], the “KINOMEscan LTK” value was found to be 6. Further, the “KINOMEscan SBK1” value in [7] was 0. Also, in [8], the “KINOMEscan TTK” value stood at 17. Further, in assay [9], the “KINOMEscan MARK1” value is 21. In addition, in assay [10], the “KINOMEscan CLK1” value was 0. Besides, the “KINOMEscan DAPK3” value in assay [11] is on record as 0.

With `Cc1cccc(-c2nc(N(C)c3ccc4ncsc4c3)c3ccccc3n2)n1` [NK-161], in assay [1], the “KINOMEscan ABL1(T315I)-nonphosphorylated” value was found to be 0 and the “KINOMEscan ABL1(T315I)-phosphorylated” value turned out to be 3. The “KINOMEscan MYLK” value in [2] was found to be 3. Besides, the “KINOMEscan MAP3K2” value in assay [3] amounted to 0. Also, the “KINOMEscan PKN2” value in assay [4] is listed as 0. In addition, in assay [5], the “KINOMEscan TSSK3” value was 6. Moreover, the “KINOMEscan LTK” value in assay [6] was 14. Besides, the “KINOMEscan SBK1” value in assay [7] was determined as 0. Besides, the “KINOMEscan TTK” value in [8] stood at 26. Moreover, the “KINOMEscan MARK1” value in assay [9] was 13. In addition, the “KINOMEscan CLK1” value in [10] was determined as 2. Also, the “KINOMEscan DAPK3” value in assay [11] is given as 0.
